# Values of other authors in patent US20050159439A1, “Management of postoperative pain” (priority 2001, published 2005).
# System: subjects operated on for lumbar disc herniation
# Settings: 10 mg epidural morphine, lumbar disc herniation surgery
compound,measurement,value
CN1CC[C@]23c4c5ccc(O)c4O[C@H]2[C@@H](O)C=C[C@H]3[C@H]1C5 [morphine],Pain relief,significant pain relief
same,Side effect,urinary retention was the relevant side effect
